# Legend:
# Type in all cases: biochemical
# [1] = molecular target: T1, KIAA 1361 (baculovirus expressed human KIAA 1361 kinase domain 2-322) (Homo sapiens, UniProt Q7L7X3); assay: KIAA 1361 Luciferase-Coupled Chemiluminescent Kinase assay (LCCA); details: 2 μM ATP, 10 μM MBP, 12 nM KIAA 1361, 2 hours; read-out: KIAA1361 inhibition IC50
# T1 construct: human KIAA 1361 kinase domain 2-322; made in house
# T1 sequence (Q7L7X3 2-322): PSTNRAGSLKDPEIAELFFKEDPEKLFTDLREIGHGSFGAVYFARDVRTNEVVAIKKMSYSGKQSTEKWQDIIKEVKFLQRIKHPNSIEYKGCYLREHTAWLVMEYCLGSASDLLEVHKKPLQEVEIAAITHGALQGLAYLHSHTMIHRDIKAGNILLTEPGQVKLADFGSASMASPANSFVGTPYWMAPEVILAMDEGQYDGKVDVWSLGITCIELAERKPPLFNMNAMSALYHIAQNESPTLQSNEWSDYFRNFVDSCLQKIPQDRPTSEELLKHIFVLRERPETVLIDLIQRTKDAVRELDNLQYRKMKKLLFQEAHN
# Procedure, shortened: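 KIAA 1361 kinase domain 2-322 (baculovirus, 12 nM) with 2 μM ATP and 10 μM MBP in Tris pH 7.5, MgCl2, MnCl2; 2 h, ambient. Remaining ATP read by luciferase chemiluminescence; 10 concentrations, IC50 by four-parameter fit.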
# [2] = molecular target: T2, JIK (Homo sapiens, UniProt Q9H2K8); assay: JIK Luciferase-Coupled Chemiluminescent Kinase assay (LCCA); details: 2 μM ATP, 10 μM MBP, 6 nM JIK, 2 hours; read-out: JIK inhibition IC50
# T2 construct: 6 nM JIK (baculovirus expressed human KIAA 1361 kinase domain2-318); made in house
# T2 sequence (Q9H2K8 2-318): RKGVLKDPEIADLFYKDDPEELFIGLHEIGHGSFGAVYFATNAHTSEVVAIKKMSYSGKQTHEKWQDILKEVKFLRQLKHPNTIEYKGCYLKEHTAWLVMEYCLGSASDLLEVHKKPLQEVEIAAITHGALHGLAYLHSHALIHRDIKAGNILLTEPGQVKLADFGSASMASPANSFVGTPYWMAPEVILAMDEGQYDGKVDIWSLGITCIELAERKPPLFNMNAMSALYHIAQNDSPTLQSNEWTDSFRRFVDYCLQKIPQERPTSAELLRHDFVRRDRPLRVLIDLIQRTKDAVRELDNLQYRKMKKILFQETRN
# Procedure, shortened: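 Baculovirus-expressed human KIAA 1361 kinase domain 2-318 at 6 nM, with 10 μM MBP and 2 μM ATP in Tris pH 7.5 with Mg/Mn, ran 2 h at ambient temperature. Remaining ATP was read by luciferase chemiluminescence. IC50 comes from a 10-concentration four-parameter fit.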
# [3] = molecular target: T3, TAO (Homo sapiens, UniProt Q9UL54); assay: TAO Luciferase-Coupled Chemiluminescent Kinase assay (LCCA); details: 2 μM ATP, 10 μM MBP, 12 nM TAO, 2 hours; read-out: TAO inhibition IC50
# T3 sequence (Q9UL54 1-1235): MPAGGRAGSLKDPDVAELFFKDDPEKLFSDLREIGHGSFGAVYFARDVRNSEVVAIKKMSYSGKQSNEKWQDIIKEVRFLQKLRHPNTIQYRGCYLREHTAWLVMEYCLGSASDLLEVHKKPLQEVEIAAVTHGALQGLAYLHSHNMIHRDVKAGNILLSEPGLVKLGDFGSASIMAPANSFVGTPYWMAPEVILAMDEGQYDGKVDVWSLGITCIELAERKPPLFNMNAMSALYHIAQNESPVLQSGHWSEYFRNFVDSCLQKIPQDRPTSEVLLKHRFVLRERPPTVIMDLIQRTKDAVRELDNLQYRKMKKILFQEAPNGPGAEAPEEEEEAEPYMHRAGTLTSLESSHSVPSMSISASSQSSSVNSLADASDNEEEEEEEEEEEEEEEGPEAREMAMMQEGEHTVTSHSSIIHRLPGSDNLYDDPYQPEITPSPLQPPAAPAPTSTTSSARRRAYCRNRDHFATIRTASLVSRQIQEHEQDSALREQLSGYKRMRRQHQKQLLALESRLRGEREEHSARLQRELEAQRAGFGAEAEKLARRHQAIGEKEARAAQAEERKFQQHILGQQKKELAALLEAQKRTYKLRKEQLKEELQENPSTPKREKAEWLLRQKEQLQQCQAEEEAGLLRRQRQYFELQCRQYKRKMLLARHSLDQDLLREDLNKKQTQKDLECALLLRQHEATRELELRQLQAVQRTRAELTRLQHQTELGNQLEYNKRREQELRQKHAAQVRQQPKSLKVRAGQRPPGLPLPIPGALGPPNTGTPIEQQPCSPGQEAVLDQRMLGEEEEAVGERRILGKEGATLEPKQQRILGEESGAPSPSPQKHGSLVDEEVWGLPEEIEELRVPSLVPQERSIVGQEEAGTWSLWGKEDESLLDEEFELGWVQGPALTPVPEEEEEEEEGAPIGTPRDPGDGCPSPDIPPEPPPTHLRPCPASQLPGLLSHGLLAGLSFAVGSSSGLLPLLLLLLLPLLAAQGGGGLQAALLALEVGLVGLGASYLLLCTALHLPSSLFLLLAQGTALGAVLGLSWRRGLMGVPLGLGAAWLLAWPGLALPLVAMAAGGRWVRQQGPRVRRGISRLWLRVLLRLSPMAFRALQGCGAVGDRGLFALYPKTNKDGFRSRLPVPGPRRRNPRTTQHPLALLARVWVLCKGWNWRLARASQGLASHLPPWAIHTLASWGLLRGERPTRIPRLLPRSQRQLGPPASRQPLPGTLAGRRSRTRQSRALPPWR
SMILES,IC50 [1],IC50 [2],IC50 [3]
"O=C(CC(NC(=O)c1ccccc1)c1ccccc1)NCC(=O)NC1CCCc2ccccc21 (stereo not drawn) [Entry 81, N-(3-oxo-3-{[2-oxo-2-(1,2,3,4-tetrahydronaphthalen-1-ylamino)ethyl]amino}-1-phenylpropyl)benzamide]",> 5000 nM,> 5000 nM,> 5000 nM
"COc1ccc(/C=C/C(=O)N[C@@H](Cc2c[nH]c3ccccc23)C(=O)NC2CCCc3ccccc32)cc1OC (stereo partly drawn) [Entry 17, Nalpha-{(2E)-3-[3,4-bis(methyloxy)phenyl]prop-2-enoyl}-N-(1,2,3,4-tetrahydronaphthalen-1-yl)tryptophanamide]",50 to 500 nM,50 to 500 nM,500 to 5000 nM
"O=C(CNC(=O)c1cnc2ccccc2c1)Nc1cccc2c1CCCC2 [Entry 87, N-[2-oxo-2-(5,6,7,8-tetrahydronaphthalen-1-ylamino)ethyl]quinoline-3-carboxamide]",> 5000 nM,> 5000 nM,> 5000 nM
"COc1cc2cc(C(=O)NCC(=O)NC3CCCc4ccccc43)[nH]c2cc1OC (stereo not drawn) [Entry 59, 5,6-bis(methyloxy)-N-(2-oxo-2-(1,2,3,4-tetrahydronaphthalen-1-ylamino)ethyl]-1H-indole-2-carboxamide]",500 to 5000 nM,50 to 500 nM,500 to 5000 nM
"O=C(CNC(=O)c1ccc(N2CCOCC2)cc1)NC1CCCc2ccccc21 (stereo not drawn) [Entry 58, 4-morpholin-4-yl-N-[2-oxo-2-(1,2,3,4-tetrahydronaphthalen-1-ylamino)ethyl]benzamide]",> 5000 nM,500 to 5000 nM,> 5000 nM
"CCc1ccc(-c2ccc(C(=O)NCC(=O)NC(C)c3ccccc3)cc2)cc1 (stereo not drawn) [Entry 78, 4′-ethyl-N-{2-oxo-2-[(1-phenylethyl)amino]ethyl}biphenyl-4-carboxamide]",500 to 5000 nM,50 to 500 nM,> 5000 nM
"CCCCOc1ccc(C(=O)N[C@@H](Cc2c[nH]c3ccccc23)C(=O)NC2CCCc3ccccc32)cc1 (stereo partly drawn) [Entry 14, Nalpha-{[4-(butyloxy)phenyl]carbonyl}-N-(1,2,3,4-tetrahydronaphthalen-1-yl)tryptophanamide]",50 to 500 nM,50 to 500 nM,500 to 5000 nM
"CCc1ccc(-c2ccc(C(=O)NCC(=O)NCC3COc4ccccc4O3)cc2)cc1 (stereo not drawn) [Entry 65, N-{2-[(2,3-dihydro-1,4-benzodioxin-2-ylmethyl)amino]-2-oxoethyl}-4′-ethylbiphenyl-4-carboxamide]",> 5000 nM,> 5000 nM,> 5000 nM
"O=C(CNC(=O)Nc1cc(C(F)(F)F)cc(C(F)(F)F)c1)NC1CCCc2ccccc21 (stereo not drawn) [Entry 47, N˜2˜-({[3,5-bis(trifluoromethyl)phenyl]amino}carbonyl)-N-(1,2,3,4-tetrahydronaphthalen-1-yl)glycinamide]",> 5000 nM,> 5000 nM,> 5000 nM
"COc1ccc2nc(NC(=O)CCCNC(=O)Cn3cnc4sc5c(c4c3=O)CCCC5)sc2c1 [Entry 23, N-[6-(methyloxy)-1,3-benzothiazol-2-yl]-4-{[(4-oxo-5,6,7,8-tetrahydro[1]benzothieno[2,3-d]pyrimidin-3(4H)-yl)acetyl]amino}butanamide]",50 to 500 nM,50 to 500 nM,500 to 5000 nM
"O=C(CNC(=O)c1ccc(N2CCCCC2)cc1)NC1CCCc2ccccc21 (stereo not drawn) [Entry 77, N-[2-oxo-2-(1,2,3,4-tetrahydronaphthalen-1-ylamino)ethyl]-4-piperidin-1-ylbenzamide]",500 to 5000 nM,50 to 500 nM,500 to 5000 nM
"CCc1ccc(-c2ccc(C(=O)NCC(=O)NCc3ccccc3)cc2)cc1 [Entry 52, 4-ethyl-N-{2-oxo-2-[(phenylmethyl)amino]ethyl}biphenyl-4-carboxamide]",> 5000 nM,> 5000 nM,> 5000 nM
"O=C(CN1CCN(S(=O)(=O)CCc2cccc3ccccc23)CC1)Nc1ccccn1 [Entry 41, 2-{4-[(2-naphthalen-1-ylethyl)sulfonyl]piperazin-1-yl)-N-pyridin-2-ylacetamide]",< 50 nM,< 50 nM,50 to 500 nM
"CCCCCOc1ccc(C(=O)NC(C)C(=O)NC2CCc3ccccc3C2)cc1 (stereo not drawn) [Entry 9, N-[1-methyl-2-oxo-2-(1,2,3,4-tetrahydronaphthalen-2-ylamino)ethyl]-4-(pentyloxy)benzamide]",50 to 500 nM,50 to 500 nM,500 to 5000 nM
"CCCCOc1ccc(C(=O)NCC(=O)NC2CCCc3ccccc32)cc1 (stereo not drawn) [Entry 27, 4-(butyloxy)-N-[2-oxo-2-(1,2,3,4-tetrahydronaphthalen-1-ylamino)ethyl]benzamide]",500 to 5000 nM,50 to 500 nM,500 to 5000 nM
"O=C(CNC(=O)c1ccc(-c2ccccc2)cc1)NC1CCCc2ccccc21 (stereo not drawn) [Entry 43, N-[2-oxo-2-(1,2,3,4-tetrahydronaphthalen-1-ylamino)ethyl]biphenyl-4-carboxamide]",< 50 nM,< 50 nM,< 50 nM
"O=C(COc1ccc(OC(F)(F)F)cc1)NCC(=O)NC1CCCc2ccccc21 (stereo not drawn) [Entry 31, N-(1,2,3,4-tetrahydronaphthalen-1-yl)-N˜2˜-[({4-[(trifluoromethyl)oxy]phenyl}oxy)acetyl]glycinamide]",500 to 5000 nM,500 to 5000 nM,500 to 5000 nM
"O=C(CNC(=O)c1ccc(OC(F)(F)F)cc1)NC1CCCc2ccccc21 (stereo not drawn) [Entry 45, N-[2-oxo-2-(1,2,3,4-tetrahydronaphthalen-1-ylamino)ethyl]-4-[(trifluoromethyl)oxy]benzamide]",500 to 5000 nM,50 to 500 nM,500 to 5000 nM
"CCOCCCNC(=O)c1ccc(C(=O)NCC2COc3ccccc3O2)cc1N (stereo not drawn) [Entry 62, 2-amino-N-˜4˜-(2,3-dihydro-1,4-benzodioxin-2-ylmethyl)-N˜1˜-[3-(ethyloxy)propyl]benzene-1,4-dicarboxamide]",> 5000 nM,> 5000 nM,> 5000 nM
"O=C(NC(C(=O)NC1CCCc2ccccc21)c1cccnc1)c1ccc(/N=N/c2ccccc2)cc1 (stereo not drawn) [Entry 26, N-[2-oxo-1-pyridin-3-yl-2-(1,2,3,4-tetrahydronaphthalen-1-ylamino)ethyl]-4-[(E)-phenyldiazenyl]benzamide]",500 to 5000 nM,50 to 500 nM,500 to 5000 nM
"O=C(CNC(=O)NCCc1ccc(-c2ccccc2)cc1)NC1CCCc2ccccc21 (stereo not drawn) [Entry 72, N˜2˜-{[(2-biphenyl-4-ylethyl)amino]carbonyl}-N-(1,2,3,4-tetrahydronaphthalen-1-yl)glycinamide]",> 5000 nM,> 5000 nM,> 5000 nM

# Source: patent publication US20070208166A1, “Tao Kinase Modulators And Method Of Use” (Exelixis, Inc., priority 2003, published 2007)
